The values below come from US8673587B2, “Methods for identifying allosteric and other novel acyl-coenzyme A:cholesterol acyltransferase inhibitors” (Trustees of Dartmouth College, priority 2010, dated 2014).

Test [1] addresses T1, histidine-tagged recombinant human ACAT1 (Homo sapiens, UniProt P35610, M1L).
T1 construct: hACAT-1 cDNA (nucleotide residues 1397-3046, a total of 550 amino acids); made in house; partially purified on a nickel column
T1 sequence (P35610 1-550 M1L): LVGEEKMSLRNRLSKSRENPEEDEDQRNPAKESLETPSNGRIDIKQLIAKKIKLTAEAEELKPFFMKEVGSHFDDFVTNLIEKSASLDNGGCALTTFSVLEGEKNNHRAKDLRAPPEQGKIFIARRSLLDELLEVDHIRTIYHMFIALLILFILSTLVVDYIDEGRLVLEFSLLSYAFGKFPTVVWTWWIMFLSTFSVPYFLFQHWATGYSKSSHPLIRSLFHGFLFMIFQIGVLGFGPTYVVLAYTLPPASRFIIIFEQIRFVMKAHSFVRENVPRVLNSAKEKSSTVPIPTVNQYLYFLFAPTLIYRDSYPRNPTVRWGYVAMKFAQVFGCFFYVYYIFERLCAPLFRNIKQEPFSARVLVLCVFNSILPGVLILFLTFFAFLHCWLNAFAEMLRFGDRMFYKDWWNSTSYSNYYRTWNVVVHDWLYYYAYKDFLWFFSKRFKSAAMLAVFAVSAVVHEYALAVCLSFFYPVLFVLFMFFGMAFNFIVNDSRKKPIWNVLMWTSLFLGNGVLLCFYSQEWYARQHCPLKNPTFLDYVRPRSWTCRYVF
Nature of the test: Steroid (pregnenolone/DHEA/E2) esterification in mixed micelles, ACAT1 as enzyme source. Type of test: biochemical. As to conditions: for activation of pregnenolone esterification by sterol: sterol at 0.32 mM, 1 μM [3H]-pregnenolone; for ACAT1 substrate activity: 1 μM [3H]-steroid. The source says: (§1) The method of the present invention was developed in experiments using a mixed micelle enzyme assay system. […] A candidate ACAT inhibitor is an allosteric inhibitor if it is shown in the method of the present invention to inhibit cholesterol-dependent pregnenolone esterification but not to inhibit the basal pregnenolone esterification when cholesterol is absent in the assay mixture. […] In the assay system of the present invention, the source of ACAT was histidine-tagged recombinant human ACAT1 or human ACAT2, stably expressed in Chinese hamster ovary (CHO) cells that lack endogenous ACAT activity. However, one of skill in the art could employ other suitable mammalian cell systems as needed. The enzyme preparations used in the present method were partially purified through the use of nickel column chromatography, as described previously (Liu et al. 2005. Biochem. J. 391:389-397), using cells that stably expressing histidine-tagged recombinant human ACAT1 or human ACAT2 as the enzyme source.
(§2) In developing the method of the present invention, a series of experiments was performed. Pregnenolone is one compound that contains the classical A, B, C, D steroid rings as well as a 3 beta-OH moiety. Based on its structure, pregnenolone may be an ACAT substrate. However, this possibility had not previously been tested experimentally. In the present invention, the activity of pregnenolone was tested by using radiolabeled pregnenolone ([^3H]-pregnenolone) in a mixed micelle enzyme assay mixture that contained the detergent taurocholate (or CHAPS), phosphatidylcholine, and oleyl-coenzyme A bound to bovine serum albumin (BSA). The enzyme used was histidine-tagged human ACAT1 or human ACAT2. The esterification of pregnenolone (i.e., formation of pregnenolone oleate) was monitored by performing lipid extraction to isolate [^3H]-pregnenolone oleate and [^3H]-pregnenolone. [^3H]-pregnenolone oleate was then separated from [^3H]-pregnenolone by using conventional thin-layer chromatography. Levels of [^3H]-pregnenolone oleate formed was measured using a scintillation counter. […] Thus, using ACAT1 as the enzyme source, the esterification of DHEA was examined (FIG. 1C).
A pregnenolone substrate saturation curve was then constructed, with or without addition of cholesterol to the assay mixture, using ACAT1 as the enzyme source (FIG. 2A). […] Then, a DHEA substrate saturation curve was constructed, with cholesterol present.
Further experiments were performed to examine the effect of adding various non-oxysterols, at a concentration of 0.32 mM, on pregnenolone esterification in vitro, with ACAT1 as the enzyme source.
(§3) To assay the enzyme, the pregnenolone/detergent/PC micelles and the cholesterol/detergent/PC micelles were prepared individually as follows: the radiolabeled pregnenolone/PC mixture or the cholesterol/PC mixture was prepared as described previously (Shi et al. 1989. Biochim. Biophys. Acta 982:187-195) and lyophilized to remove residual organic solvents. After lyophilization, the detergent sodium taurocholate (or other detergent such as CHAPS) in Buffer A was added to reach a final concentration of 10 mg/ml. The mixture was purged with nitrogen, followed by sonication until this mixture was clear. The pregnenolone/PC micelles were mixed with the cholesterol/PC micelles such that the cholesterol concentration is at 0 mM or at 0.32 mM, and the radioactive pregnenolone concentration is at 1 μM (specific activity 20 Ci/mmol).

Test [2] relates to amyloid precursor protein (APP). The conditions noted are these: cited from earlier work.
The target in test [3] is T2, HisACAT1/FLAG (recombinant hACAT1) (Homo sapiens, UniProt P35610, M1L).
T2 construct: hACAT1 contains 550 amino acids; made in house
T2 sequence (P35610 1-550 M1L): T1 sequence (P35610 1-550 M1L)
Nature of the test: Ligand binding by change in intrinsic (tryptophan) fluorescence of HisACAT1/FLAG. The conditions noted are these: for maximal increase in fluorescence peak height with respect to unliganded ACAT1 protein: excitation 295 nm, peak 330 nm. From the text:
Fluorescence measurements were generated using an ISS PC1 photocounting fluorescence spectrophotometer (model 90095). This instrument has continuously reproducible slits ranging from 0.4 to 32 nm band-pass. The excitation slit width was set at 2 nm. The wavelength for excitation was set at 295 nm in order to minimize the contribution of tyrosine residues to the fluorescence. Purified HisACAT1/FLAG was concentrated using 30K AMICON centrifugal filters such that the final concentration of the protein was 100-200 ng/μL (1.5-3 μM). Purified protein was stored at −80° C. until used. Unless stated otherwise, the fluorescence measurements were performed at pH 7.8 with 50 mM potassium phosphate, 0.5M KCl, and 8.13 mM CHAPS. Sterol (cholesterol, epicholesterol, coprostanol, and epicoprostanol) was prepared as CHAPS/PC/sterol mixed micelles (with CHAPS at 8.13 mM, PC at 4 mM, and with varying concentrations of sterols as indicated) and stored at 20° C. in the dark until usage. The fatty acyl-CoAs were dissolved in 20 mM sodium acetate at pH 6.4 as a 2 mM stock and stored at −80° C. until used. Before the experiment started, all reagents were kept on ice in the dark. To begin the experiment, 50 μL of mixed micelles without or with sterols was added into a HELLMA microcuvette with 3 mm light path. Twenty-five microliters of ACAT1 protein (in 8.13 mM CHAPS and 0.5 M KCl) was then added and rapidly mixed. Fluorescence was monitored within 15 seconds of adding the enzyme. The sample compartment of the instrument was maintained at 20° C. The fluorescence emission spectrum was scanned in 2 minutes between 310 and 410 nm. The differences in fluorescence intensity at 10 intervals within 325-335 nm were averaged in order to calculate the ΔF value between the ligated protein vs that of the unligated protein.
Binding studies were subsequently conducted by monitoring the effect of increasing concentrations of oleoyl-CoA on the intrinsic fluorescence of HisACAT1/FLAG. […] However, the maximal change in the peak of the spectrum was much smaller (5% with respect to the unliganded protein). […] The data was analyzed for a simple bimolecular dissociation equilibrium using the PRISM program.
Binding experiments were subsequently performed by monitoring the effect of increasing concentrations of cholesterol, from 10 to 600 μM, on the intrinsic fluorescence of HisACAT1/FLAG. […] It was estimated that the cholesterol concentration that caused half-maximal spectral change was 35 μM. […] The changes in the intrinsic fluorescence of ACAT1 caused by cholesterol, epicholesterol, coprostanol, or epicoprostanol as the ligand were also compared.

Test [4] deals with T3, histidine-tagged recombinant human ACAT2 (Homo sapiens, UniProt O75908).
T3 construct: made in house; partially purified on a nickel column
T3 sequence (O75908 1-522): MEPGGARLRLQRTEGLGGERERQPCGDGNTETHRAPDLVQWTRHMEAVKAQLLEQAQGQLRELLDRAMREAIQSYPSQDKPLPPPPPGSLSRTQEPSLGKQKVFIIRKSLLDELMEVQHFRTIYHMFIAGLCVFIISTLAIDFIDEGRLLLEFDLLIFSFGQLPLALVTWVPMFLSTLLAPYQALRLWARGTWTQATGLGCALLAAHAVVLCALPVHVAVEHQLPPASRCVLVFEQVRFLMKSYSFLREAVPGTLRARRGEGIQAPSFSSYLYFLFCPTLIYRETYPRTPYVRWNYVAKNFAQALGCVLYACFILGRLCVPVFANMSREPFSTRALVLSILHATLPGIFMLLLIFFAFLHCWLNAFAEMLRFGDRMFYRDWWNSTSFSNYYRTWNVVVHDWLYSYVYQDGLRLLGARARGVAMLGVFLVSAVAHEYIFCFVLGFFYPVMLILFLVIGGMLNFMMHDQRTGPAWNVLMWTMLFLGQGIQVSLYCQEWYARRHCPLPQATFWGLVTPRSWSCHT
Nature of the test: Pregnenolone esterification in mixed micelles, ACAT2 as enzyme source. The conditions noted are these: ACAT2; for activation of pregnenolone esterification by sterol: sterol at 0.32 mM, 1 μM [3H]-pregnenolone. It counts as biochemical.
Text: as §1, §2, §3

Turning to `CC(C)CCCC(C)C1CCC2C3CC=C4CC(O)CCC4(C)C3CCC12C` (single isomer, unassigned) [enantiomeric (ent-)cholesterol], the “activation of pregnenolone esterification by sterol” value (from here on “activation … by sterol”) in test [1] (ACAT1) is “much less efficiently than sitosterol”.
`CC(C)CCC[C@@H](C)[C@H]1CC[C@H]2[C@@H]3[C@H](O)C=C4C[C@@H](O)CC[C@]4(C)[C@H]3CC[C@]12C` [7-alpha-OH-cholesterol]: the “activation … by sterol” value in test [1] (ACAT1) was “least activation”.
With `CC(C)CC[C@@H](O)[C@@H](C)[C@H]1CC[C@H]2[C@@H]3CC=C4C[C@@H](O)CC[C@]4(C)[C@H]3CC[C@]12C` [22R-hydroxy-cholesterol], the “activation … by sterol” value in test [1] (ACAT1) is “least activation”.
As to `CCCCCCCC[C@H](SCCCCCC)C(=O)Nc1c(SC)cc(C)nc1SC` [CP113818], the “full-length human APP content” value in test [2] (animal model for AD) was “did not cause a reduction”. Besides, the “processing of APP” value in test [2] (animal models for AD) was “inhibit the processing of both human amyloid precursor protein (APP) and mouse APP”.
`C[C@]12CC[C@H](O)CC1=CC[C@@H]1[C@@H]2CC[C@]2(C)C(=O)CC[C@@H]12` [DHEA, dihydroepiandrosterone]: the ACAT1 substrate activity result is on record as “did not exhibit ACAT substrate activity” in test [1] (absence of cholesterol) and “exhibited significant substrate activity” in test [1] (presence of excess cholesterol (0.32 mM)). For the same compound, the “apparent Km as ACAT1 substrate” value in test [1] (with cholesterol present in vitro (0.32 mM)) is “too high to be measurable”.
For the compound `CC(C)CCC[C@@H](C)[C@H]1CC[C@H]2[C@@H]3CC=C4C[C@H](O)CC[C@]4(C)[C@H]3CC[C@]12C` [Epi-cholesterol], the “activation … by sterol” value in test [1] (ACAT1) was “much less efficiently than sitosterol”. In addition, the “maximal increase in fluorescence peak height with respect to unliganded ACAT1 protein” value (“maximal increase” for short) in test [3] was “much smaller than those caused by cholesterol”. Besides, the “concentration that caused half-maximal spectral change” value in test [3] (ligand 10 to 600 μM) is recorded as “too small to derive a reliable binding curve”.
As to `CC[C@H](CC[C@@H](C)[C@H]1CC[C@H]2[C@@H]3CC=C4C[C@@H](O)CC[C@]4(C)[C@H]3CC[C@]12C)C(C)C` [Sitosterol], the results for the “activation … by sterol” value in test [1] (ACAT1) and in test [4] were “not as efficiently as cholesterol” and “only slightly activated”, respectively.
Consider `CC(C)CCC[C@@H](C)[C@H]1CC[C@H]2[C@@H]3CC=C4C[C@@H](O)CC[C@]4(C)[C@H]3CC[C@]12C` [cholesterol], for which the “activation of pregnenolone esterification” value in test [1] (ACAT1, cholesterol added to assay mixture) is “more than 100 fold”; in test [4] (cholesterol added to assay mixture), “more than 100 fold”. For the same compound, the “activation … by sterol” value in test [1] (ACAT1) and in test [4] was “maximal activation” throughout. In addition, the “maximal increase” value in test [3] is “up to 35%”. Moreover, the EC50 in test [3] (ligand 10 to 600 μM, read-out: concentration that caused half-maximal spectral change) came out at 35 µM.
Consider `CC(C)[C@@H](C)/C=C/[C@@H](C)[C@H]1CC[C@H]2C3=CC=C4C[C@@H](O)CC[C@]4(C)C3=CC[C@]12C` [dehydroergosterol], for which, in test [1] (ACAT1), the “activation … by sterol” value is “much less efficiently than sitosterol”.
Take `CCCCCCCCCCCCCCCCCC(=O)SCCNC(=O)CCNC(=O)[C@H](O)C(C)(C)COP(=O)(O)OP(=O)(O)OC[C@H]1O[C@@H](n2cnc3c(N)ncnc32)[C@H](O)[C@@H]1OP(=O)(O)O` [stearoyl-CoA]: in test [3], the “maximal increase” value was found to be 5%. For the same compound, in test [3] (simple bimolecular dissociation equilibrium, PRISM), the dissociation constant result is “too small to derive a reliable dissociation constant”.
